{
  "source": "patent US20220265772A1",
  "about": "“USES OF DAN FAMILY BMP ANTAGONISTS FOR INHIBITING OCULAR NEOVASCULARIZATION AND TREATING OCULAR CONDITIONS” (9636137 Canada Inc., priority 2019, published 2022)",
  "key": {"Wnt signaling": {"system": "Wnt signaling", "test": "Canonical Wnt signaling in HUVECs (immunoblotting, β-catenin immunofluorescence)", "type": "cell-based, human", "method": "FIG. 12 is a panel with a schematic, pictures showing that Dand5 reduces canonical Wnt signaling in HUVECs. HUVECs were plated to confluence and received a 2 h scratch in the presence or absence of Dand5 ([…]) or IWR1 (3 μM). β-catenin (green) localization was examined by immunofluorescence with phalloidin and DAPI (nuclei) to identify the cell boundaries and nucleus. […] Scale bars, […]).\nCells were washed with cold PBS and extracted in Laemmli's buffer, followed by sonication. Samples were run on SDS-PAGE gels and transferred onto nitrocellulose membranes. Membranes were blocked with 5% Bovine Serum Albumin (BSA) and probed with primary antibodies overnight at 4° C.: beta-Catenin (Cell Signaling Technology), phospho-beta-catenin (Cell Signaling Technology), Axin2 (Cell Signaling Technology), beta-Actin (Santa Cruz Technologies). HRP-conjugated secondary antibodies (Vector Laboratories) were used to detect primary antibodies.\nWe next evaluated the molecular mechanisms underlying the effects of DAND5 on endothelial cells. […] Wnt signaling regulates fundamental aspects of vascular development, including cell fate specification, proliferation and survival. […] HUVECs were treated for up to 24 hours with DAND5 or IWR-1, an inhibitor of Wnt canonical signaling. Protein extracts were harvested and subjected to immunoblotting against downstream effectors of Wnt signaling. […] The levels of β-catenin at different subcellular localizations are regulated by a variety of processes including site-specific phosphorylation of β-catenin. In the absence of an active Wnt signaling, β-catenin localization at cellular junctions is reduced and cytoplasmic β-catenin associates with the destruction complex (6)."}, "HUVECs": {"system": "HUVECs", "test": "Free radicals / ROS in HUVECs (DCFDA, MitoSoxRed)", "type": "cell-based, human", "conditions": "HUVECs treated with DAND5 plus NAC", "method": "FIG. 8 is a panel with graphs and pictures showing that Dand5 induces mitochondrial oxidative stress and alters ATP levels in HUVECs. FIG. 8A: HUVEC cells were treated with Dand5 in the presence or not of N-acetylcysteine (NAC) for up to 48 hours. Cells were then incubated with H2DCFDA. Hydrogen peroxide treated cells (H2O2) were included as a positive control. Fluorescence was measured at Ex: 485 nm and Em: 535 nm in a plate reader. Relative Fluorescence Units (RFU) were generated by normalizing the reading of each well to Hoescht staining (n=3,*p<0.05 **p<0.001). FIG. 8B: HUVEC cells were treated with Dand5 in for up to 48 hours. Cells were incubated with MitoSox Red. 3-nitro-proprionic acid (3-NP) treated cells were also examined as a positive control. Fluorescence was measured at Ex: 544 nm and Em: 590 nm. Relative Fluorescence Units (RFU) were generated by normalizing the reading of each well to Hoescht staining (n=3,*p<0.05). FIG. 8C: Primary culture of choroidal sprouts were treated with Dand5 in the absence or presence of NAC. FIG. 8D: Quantification of sprouting area by Image J. FIG. 8E: The ratio of NAD+ to NADH in whole cell extracts was determined using an Alcohol Dehydrogenase/Malate Dehydrogenase enzymatic cycling assay. Cells treated to hypoxic conditions (4% O2 for 3 hours) were included as a positive control (n=3,*p<0.05, **p<0.01). Likewise, glucose uptake was reduced in Dand5-treated HUVECs after 1 hour, while lactate levels were increased (lower panel). FIG. 8F: ATP levels were reduced in HUVECs exposed to Dand5 at 1, 6 and 24 hours (n=3,*p=0.05).\nWe exposed or not HUVECs to recombinant DAND5 and measured the concentration of free radicals using DCFDA and MitoSoxRed™. […] To further test this, we measure the NAD+/NADH ratio in cells treated or not with DAND5. […] Likewise, glucose uptake was reduced and lactate levels were increased in DAND5-treated HUVECs after 1 h (FIG. 8E, lower panel)."}, "mouse choroidal explants": {"system": "mouse choroidal explants", "test": "Choroidal explant sprouting in culture", "type": "cell-based", "conditions": "mouse choroidal explants, DAND5 plus NAC", "method": "FIG. 1 is a panel with pictures, bar graphs, and graphs showing that Dand5 reduces VEGF-mediated sprouting angiogenesis in cultured endothelial cells. FIG. 1A: HUVECs grown in a fibrinogen gel were treated with VEGF to induce tube formation in the presence or absence of Dand5. […] FIG. 1B: HUVECs were plated to confluency and scratched to stimulate a wound in the presence or absence of Dand5. Scale bar, 100 μm. FIG. 1C: Quantification of tube formation in FIG. 1A n=3, *p<0.05, **p<0.01). FIG. 1E: Choroids were isolated from wild-type mice and cultured in vitro in the absence or presence of Dand5. […] FIG. 1F: Quantification of sprouting areas in choroidal sprouts (n=3, ***p<0.0001). […] FIG. 1H: HUVECs were cultured in the presence or absence of Dand5 and analyzed by immunofluorescence using antibodies against phospho-Histone 3 (PH3), a marker of cellular mitosis, and phalloidin and DAPI (nuclei). […] FIG. 1I: Quantification immunofluorescent staining of phospho-histone 3 positive cells. […] FIG. 1K: Quantification of immunofluorescent staining of cleaved caspase 3 (n=2, n.s.).\nTo evaluate the cellular mechanisms underlying the inhibitory effects of DAND5 on endothelial cells sprouting, we assessed the effects of DAND5 on endothelial cell migration and proliferation. […]\nWe exposed or not HUVECs to recombinant DAND5 and measured the concentration of free radicals using DCFDA and MitoSoxRed™. […]"}, "geographic atrophy (GA)": {"system": "geographic atrophy (GA)", "conditions": "in vivo; cited from earlier work"}, "Wnt-induced angiogenesis": {"system": "Wnt-induced angiogenesis", "test": "Wnt1 and DAND5 co-injection during retinal vascular development (P1 to P5)", "type": "in vivo, mouse", "method": "FIG. 13 is a panel with pictures and graphs showing that Dand5 opposes Wnt1-mediated hypervascularization during retinal vascular development. FIG. 13A: Schematic representation of experimental design. C57B6 pups were injected at P1 with PBS, Dand5 (60 ng/mL), Wnt1, or Wnt1 and Dand5 together at various molar ratios (1N, 5N and 10N). FIG. 13B: Representative images of retinas treated with PBS, Dand5 (1N) or Wnt1 (1N). FIG. 13C: Representative images of retinas treated with PBS or with Wnt1 (5N and 10N) alone or in combination with Danb5. Dand5 Flatmounts retinas were stained with Isolectin B4 to visualize the vasculature. FIG. 13D: Quantification of vascular branches in treated eyes. […] To address the antagonism of DAND5 on Wnt-induced angiogenesis, retinas were injected with recombinant DAND5 (60 ng) with increasing concentrations of Wnt1 (0, 1, 5 or 10× molar ratio) at P1 and retinas were harvested at P5 (FIG. 13A)."}, "[1]": {"conditions": "HUVECs treated for up to 24 hours, immunoblotting"}},
  "data": [
    {"molecule": "O=C(Nc1cccc2cccnc12)c1ccc(N2C(=O)[C@@H]3[C@H](C2=O)[C@@H]2C=C[C@H]3C2)cc1", "note": "[IWR-1, reference compound]", "values": [
      {"measurement": "levels of Axin2", "setting": "Wnt signaling; [1]", "result": "increased levels of Axin2"},
      {"measurement": "levels of phosphorylated beta-catenin", "setting": "Wnt signaling; [1]", "result": "increased levels of phosphorylated beta-catenin"},
      {"measurement": "levels of total beta-catenin", "setting": "Wnt signaling; [1]", "result": "decreased levels of total beta-catenin"},
      {"measurement": "cytoplasmic β-catenin", "setting": "Wnt signaling; confluent HUVECs, 2 h scratch, Dand5 60n/mL or IWR1 3 μM", "result": "increased cytoplasmic β-catenin"}
    ]},
    {"molecule": "CC(=O)N[C@@H](CS)C(=O)O", "note": "[NAC, N-acetyl cystein, reference compound]", "values": [
      {"measurement": "reversal of DAND5-induced free radical elevation", "setting": "HUVECs", "result": "could be overcome by exposing cells to N-acetyl cystein (NAC)"},
      {"measurement": "growth of DAND5-treated choroidal explants when also treated with NAC", "setting": "mouse choroidal explants", "result": "partially rescued"}
    ]},
    {"molecule": "bevacizumab: VEGF inhibitor", "values": [
      {"measurement": "risk of geographic atrophy (GA) progression", "setting": "geographic atrophy (GA)", "result": "increased risks of geographic atrophy (GA) progression"}
    ]},
    {"molecule": "ranibizumab: VEGF inhibitor", "values": [
      {"measurement": "risk of geographic atrophy (GA) progression", "setting": "geographic atrophy (GA)", "result": "increased risks of geographic atrophy (GA) progression"}
    ]},
    {"molecule": "Wnt1: Wnt1 injected into mouse retinas, alone or with DAND5, at increasing molar ratios (protein, UniProt P04426 28-370, looked up) Proto-oncogene Wnt-1: ANSSGRWWGIVNIASSTNLLTDSKSLQLVLEPSLQLLSRKQRRLIRQNPGILHSVSGGLQSAVRECKWQFRNRRWNCPTAPGPHLFGKIVNRGCRETAFIFAITSAGVTHSVARSCSEGSIESCTCDYRRRGPGGPDWHWGGCSDNIDFGRLFGREFVDSGEKGRDLRFLMNLHNNEAGRTTVFSEMRQECKCHGMSGSCTVRTCWMRLPTLRAVGDVLRDRFDGASRVLYGNRGSNRASRAELLRLEPEDPAHKPPSPHDLVYFEKSPNFCTYSGRLGTAGTAGRACNSSSPALDGCELLCCGRGHRTRTQRVTERCNCTFHWCCHVSCRNCTHTRVLHECL", "values": [
      {"measurement": "retinal vascular density", "setting": "Wnt-induced angiogenesis; Wnt1 injected at P1, retinas at P5, IsoB4 staining", "result": "retinal vascular density was increased"},
      {"measurement": "retinal vascularization at 16.6 and 33.3 pmoles", "setting": "Wnt-induced angiogenesis; Wnt1 injections of 16.6 and 33.3 pmoles, P1 to P5", "result": "significant hypervascularization"},
      {"measurement": "rescue of the inhibitory effects of DAND5 on retinal angiogenesis", "setting": "Wnt-induced angiogenesis; concomitant injection of DAND5 (60 ng) with Wnt1 (10 molar ratio)", "result": "partially rescued the inhibitory effects of DAND5 on retinal angiogenesis"},
      {"measurement": "mutual antagonism on vascular branches", "setting": "Wnt-induced angiogenesis; quantification of vascular branches in treated eyes", "result": "mutually antagonist activities"}
    ]}
  ]
}
